Structures are written as SMILES. Calls of active or inactive are those of the source. The rule behind the calls is not given here.

The first experiment has as its system Ileum. Put plainly: Antispasmodic activity in guinea pig ileum assessed as inhibition of histamine-induced tissue contraction at 10^-8 to 10^-5 M after 30 mins. The experiment is classed as functional, Cavia porcellus.
Details: not given
As for `C[C@H](CC[C@@]1(O)O[C@H]2C[C@H]3[C@@H]4CC=C5C[C@@H](O)C[C@@H](O[C@@H]6O[C@H](CO)[C@H](O)[C@H](O)[C@H]6O)[C@]5(C)[C@H]4CC[C@]3(C)[C@H]2[C@@H]1C)CO[C@@H]1O[C@H](C)[C@@H](O)[C@H](O)[C@@H]1O` [TROPEOSIDE A1], the “inhibition (INH)” value is 50%.
On to `C[C@H](CC[C@@]1(O)O[C@H]2C[C@H]3[C@@H]4CC=C5C[C@@H](O)C[C@@H](O[C@@H]6OC[C@@H](O)[C@H](O)[C@H]6O)[C@]5(C)[C@H]4CC[C@]3(C)[C@H]2[C@@H]1C)CO[C@@H]1O[C@H](C)[C@@H](O)[C@H](O)[C@@H]1O` [TROPEOSIDE B1], for which the “inhibition (INH)” value is 50%.
Same read-out and setting: the result for `C[C@H](CC[C@]1(O)O[C@H]2C[C@H]3[C@@H]4CC=C5C[C@@H](O)C[C@@H](O[C@@H]6O[C@H](CO)[C@H](O)[C@H](O)[C@H]6O)[C@]5(C)[C@H]4CC[C@]3(C)[C@H]2[C@@H]1C)CO[C@@H]1O[C@H](C)[C@@H](O)[C@H](O)[C@@H]1O` [TROPEOSIDE A2] reads 50%; that for `C[C@H](CC[C@]1(O)O[C@H]2C[C@H]3[C@@H]4CC=C5C[C@@H](O)C[C@@H](O[C@@H]6OC[C@@H](O)[C@H](O)[C@H]6O)[C@]5(C)[C@H]4CC[C@]3(C)[C@H]2[C@@H]1C)CO[C@@H]1O[C@H](C)[C@@H](O)[C@H](O)[C@@H]1O` [TROPEOSIDE B2], 50%; that for `C[C@H]1[C@H]2[C@H](C[C@H]3[C@@H]4C[C@@H](O)[C@H]5C[C@@H](O[C@@H]6O[C@H](CO)[C@H](O[C@@H]7O[C@H](CO)[C@@H](O)[C@H](O)[C@H]7O)[C@H](O)[C@H]6O)[C@H](O)C[C@]5(C)[C@H]4CC[C@]23C)O[C@]12CC[C@@H](CO)CO2` [ATROVIOLACEOSIDE], 0%.

The same experiment, now with this note: Cavia porcellus.
`C[C@H]1[C@H]2[C@H](C[C@H]3[C@@H]4C[C@@H](O)[C@H]5C[C@@H](O)[C@H](O)C[C@]5(C)[C@H]4CC[C@]23C)O[C@]12CCC(CO)CO2` (single isomer, unassigned): the result was inactive.

(Values after ChEMBL document CHEMBL1157243, “The sapogenin atroviolacegenin and its diglycoside atroviolaceoside from Allium atroviolaceum” (2006).)
